From patent US20210147814A1, “METHODS FOR GENERATING PLURIPOTENT STEM CELLS” (Memorial Sloan Kettering Cancer Center, priority 2017, published 2021)
Where two headings read alike, the source gives them in different places.

Assays:
somatic cells = test: Modification of cellular ROS levels in high-ROS / low-ROS somatic cells; type: cell-based, human; conditions: 4 hours
human AG4 fibroblasts = conditions: AG4-GSH vs AG4 control, 100,000 cells each, iPSC colonies counted at day 21
Description: (§1) For the generation of human A-iPSC, 10^5 skin fibroblasts such as young somatic cells (Y-SC) from MRCS and aged somatic cells (A-SC) from LS and AG4 donors aged 80 to 100 years were infected with retrovirus generated from the tetracistronic SFG-SV2 vector encoding for hOCT4, hSOX2, hKLF4, and hMYC in 6-well dishes with 0.5 mL of each viral supernatant (total 2 mL per well); and spun at 2500 rpm at RT for 90 min (BenchTop Centrifuge, BeckmanCoulter, Allegra-6R). The cells were contacted with 3 mM glutathione reduced ethyl ester prior to and during the early stage of reprogramming (from one day before reprogramming virus infection to 10 days post reprogramming virus infection).

pATM [1] = conditions: A-hiPSC from AG4 fibroblasts, 3 mM from one day before to 10 days post reprogramming virus infection, phleomycin 2 h, 30 μg/mL, vs untreated A-hiPSC
Description: as §1

[2] = system: G-quadruplex (G4) DNA structure; test: G4 DNA structure formation (G4 IHC staining, G4-antibody ChIP-seq) in fibroblasts; type: cell-based, human; conditions: for G4 DNA structure formation / G4 level: 4 hours; for G4 DNA structure formation: cells with high ROS levels
Description: G4 and 8-oxoguanosine Immunostaining. Cells were fixed in 3.7% formaldehyde for 20 minutes at room temperature and washed with phosphate buffered saline (PBS). Samples were then permeabilized with 0.1 Triton X-100 in PBS for 20 minutes and blocked for 1 hour with 3% bovine serum albumin (BSA) in PBS-T, followed by incubation with primary antibodies for 2 hours at room temperature or overnight at 4° C. Anti-DNA G-quadruplex (G4) Antibody, clone 1H6 (MABE1126, EMD Millipore, Burlington, Mass.) was used for the detection of DNA G-quadruplex and ANTI-8 HYDROXYGUANOSINE AB (N45.1) AB48508 from Abcam (Cambridge, United Kingdom). Primary antibodies were used at a 1:250 dilution and 1:50 respectively. Alexa 568-conjugated goat anti-mouse IgM (A-21124) was from Molecular Probes (Eugene, Oreg.). Secondary antibodies were used at a 1:1000 dilution. The nuclei were stained with 4′,6-diamidino-2-phenylindole (DAPI, Sigma, St. Louis, Mo.). Image quantification was performed with Image J (NIH, Bethesda, Md.), quantifying mean fluorescence intensity in the nuclear regions.
GSH and BSO Treatment, Time-Course Experiment. High ROS fibroblasts were treated by adding glutathione reduced ethyl ester (3 mM, GEE; Gold Biotechnology Inc., St. Louis, Mo.) to the media. Treated High ROS fibroblasts were then fixed and processed for staining at multiple timepoints. Low ROS fibroblasts were treated with L-Buthionine-sulfoximine (500 μM, BSO; Sigma, St. Louis, Mo.) to the media. Treated Low ROS fibroblasts were then fixed and processed for staining at multiple timepoints.
CHIP-SEQ for G4 Structures. Chromatin immunoprecipitation (ChIP) was performed according to the published protocol (see Carey, M. F., et al., Chromatin Immunoprecipitation (ChIP), COLD SPRING HARB PROTOC (CSH Press) (2009)). Anti-DNA G-quadruplex (G4) Antibody, clone 1H6 (MABE1126, EMD Millipore, Burlington, Mass.) was used for the detection of DNA G-quadruplex.

ZSCAN10 = conditions: A-iPSC generated with 3 mM treatment; vs untreated A-iPSC
Description: (§2) Quantitative real time-PCT (Q-PCR) analysis. The expression levels of genes (ZSCAN10, GSS) were quantified by Q-PCR with Power SYBR Green PCR mastermix (Applied Biosystems). Total RNAs (1 μg) were reverse-transcribed in a volume of 20 μL using the M-MuLV Reverse Transcriptase system (New England Biolabs), and the resulting cDNA was diluted into a total volume of 200 μL. 10 μL of this synthesized cDNA solution was used for analysis. For pluripotent genes, each reaction was performed in a 25-μL volume using the Power SYBR Green PCR mastermix (Applied Biosystems). The conditions were programmed as follows: initial denaturation at 95° C. for 10 min followed by 40 cycles of 30 sec at 95° C., 1 min at 55° C., and 1 min at 72° C.; then 1 min at 95° C., 30 s at 55° C., and 30 sec at 95° C. All of the samples were duplicated, and the PCR reaction was performed using an Mx3005 reader (Stratagene), which can detect the amount of synthesized signals during each PCR cycle. The relative amounts of the mRNAs were determined using the MxPro program (Strategene). The amount of PCR product was normalized to the percentage of the expression level of β-actin.

GSS = conditions: A-iPSC generated with 3 mM treatment; vs untreated A-iPSC
Description: as §2

A-SC from AG4 donor = conditions: 3 mM for three days in the media
Description: Reactive oxygen species (ROS) analysis. The production of superoxide by mitochondria can be visualized in fluorescence microscopy using the MitoSOX™ Red reagent (M36008, Thermofisher scientific). MitoSOX™ Red reagent permeates live cells where it selectively targets mitochondria. It is rapidly oxidized by superoxide but not by other reactive oxygen species (ROS) and reactive nitrogen species (RNS). The oxidized product is highly fluorescent upon binding to nucleic acid. Fluorescence microscopy was used to visualize the fluorescence and imaging software (Image J) was used to quantify the staining of the different cell lines.
MitoSOX RED Staining. MitoSOX Red staining (MitoSOX™ Red mitochondrial superoxide indicator *for live-cell Imaging, M36008, ThermoFisher Scientific, Waltham, Mass.) was performed according to Molecular Probes/Thermo Scientific protocol. Briefly, the MitoSOX™ reagent stock solution (5 mM, prepared in HBSS/Ca/Mg or suitable buffer) was diluted to make a 5 μM MitoSOX™ reagent working solution. 1.0-2.0 mL of the 5 μM MitoSOX™ reagent working solution was applied to cover cells adhering to coverslip(s). Cells were incubated for 10 minutes at 37° C., protected from light. Cells were washed before imaging.

human A-iPSC = system: human A-iPSC
Description: as §1
Copy number profiling analysis. Copy number profiling analysis was performed according to a published protocol (Baslan et al., Genome Research 25:1-11 (2015)).

mouse A-iPSC = test: DNA damage response in mouse A-iPSC treated with GSS inhibitor; type: cell-based; conditions: treatment of mouse A-iPSC; data not shown
Description: A-iPSC have excessive levels of glutathione (FIG. 3D) and elevated ROS scavenging activity (FIG. 3E) relative to Y-iPSC or ESC. While ROS levels in A-iPSC were increased by treatment with DNA damaging agents (FIG. 3E) and this might be sufficient to cause direct DNA damage and genomic instability, improper scavenging of ROS by excess glutathione would limit the ROS cellular stress signal needed to induce the DNA damage response, which would in turn reduce apoptosis and increase A-iPSC exposure to additional genotoxic stress, allowing accumulation of mutations and other genomic alterations. Upon ZSCAN10 expression, glutathione and ROS scavenging activity were normalized to levels equivalent to those seen in Y-iPSC and ESC (FIG. 3D, 3E). In addition, shRNA knockdown of GSS in reprogrammed A-iPSC (data not shown) decreased glutathione levels and ROS scavenging activity (data not shown), increased apoptosis (FIG. 3F), and recovered the DNA damage response (FIG. 3G). The DNA damage response was also recovered by treatment of A-iPSC with the GSS pharmacological inhibitor, L-Buthionine-sulfoximine (BSO) (data not shown). Conversely, overexpression of GSS in Y-iPSC (data not shown) increased glutathione and ROS scavenging activity (data not shown), decreased apoptosis (FIG. 3F), and blunted the DNA damage response (FIG. 311).

pATM [3] = test: Immunoblot of pATM after phleomycin treatment in BSO-A-iPSC; type: cell-based; conditions: 0.5 mM from end of reprogramming day 5, ten independent clones of A-iPSC
Description: Immunoblot analysis. […] Secondary antibodies were from Cell Signaling (1:10,000).
BSO treatment. BSO-A-iPSC were generated in the presence of 500 μM of L-Buthionine-sulfoximine (BSO, Sigma, B2515) starting on the end of reprogramming day 5. The treatment was kept throughout the end of reprogramming process and after picking the colonies.
BSO-A-iPSC were generated in the presence of 500 μM of L-Buthionine-sulfoximine (BSO, Sigma B2515) starting on the end of reprogramming day 5 as previously described (see, e.g., Ji, et al. Experimental & Molecular Medicine 42:175-186 (2010)).

N[C@@H](CCC(=O)N[C@@H](CS)C(=O)NCC(=O)O)C(=O)O [glutathione reduced ethyl ester]
cellular ROS level (somatic cells; 3 mM, high-ROS somatic cells): decreases
increase of reprogramming efficiency (human AG4 fibroblasts): approximately 10 fold
DNA damage response (pATM immunoblot) (pATM [1]): protects the DNA damage response
DNA damage response (pATM immunoblot) (pATM [1]; listed as glutathione): impairs the DNA damage response
G4 DNA structure formation ([2]; 3 mM): reduces G4 DNA structure formation
G4 DNA structure formation ([2]; 3 mM, listed as GEE): decreases
G4 IHC staining of fibroblasts ([2]; high ROS fibroblasts, 3 mM, time-course (FIG. 14A)): lower G4 IHC staining
ZSCAN10 levels in the A-iPSC (Q-PCR) (ZSCAN10): elevated
GSS levels in the A-iPSC (Q-PCR) (GSS): reduced
cellular ROS level (MitoSOX staining) (A-SC from AG4 donor): reduces the cellular ROS level
genomic stability (copy number profiling) (human A-iPSC; A-hiPSC from AG4 fibroblasts, 3 mM prior to and during first 10 days of reprogramming, vs untreated A-hiPSC): maintains genomic stability
detected rearrangements per number of clones (copy number profiling) (human A-iPSC; human A-iPSC with glutathione treatment, 10 clones, untreated A-hiPSC 7/11): 0/10

CCCCS(=N)(=O)CCC(N)C(=O)O [BSO, L-Buthionine-sulfoximine]
cellular ROS level (somatic cells; 0.5 mM, low-ROS somatic cells): increases
DNA damage response (mouse A-iPSC): recovered
G4 level ([2]; 0.5 mM, low-ROS somatic cells): increases
G4 IHC staining of fibroblasts ([2]; low ROS fibroblasts, 500 μM, time-course (FIG. 14B)): higher G4 IHC staining
DNA damage response (pATM immunoblot) (pATM [3]): recovery of the DNA damage response

NCCOc1cc(C(=O)Nc2cc(OCCN)c3ccccc3n2)nc(C(=O)Nc2cc(OCCN)c3ccccc3n2)c1 [pyridostatin]
G4 level ([2]; 10 μM, somatic cells): increases G4
